Legend:
Assay in all cases: kinome screen (33PanQinase)
Assay type in all cases: biochemical
EPHB3 = molecular target: T1, EPHB3 (Homo sapiens, UniProt P54753)
T1 construct: purchased Reaction Biology Europe GmbH (formerly ProQinase)
T1 sequence (P54753 34-998): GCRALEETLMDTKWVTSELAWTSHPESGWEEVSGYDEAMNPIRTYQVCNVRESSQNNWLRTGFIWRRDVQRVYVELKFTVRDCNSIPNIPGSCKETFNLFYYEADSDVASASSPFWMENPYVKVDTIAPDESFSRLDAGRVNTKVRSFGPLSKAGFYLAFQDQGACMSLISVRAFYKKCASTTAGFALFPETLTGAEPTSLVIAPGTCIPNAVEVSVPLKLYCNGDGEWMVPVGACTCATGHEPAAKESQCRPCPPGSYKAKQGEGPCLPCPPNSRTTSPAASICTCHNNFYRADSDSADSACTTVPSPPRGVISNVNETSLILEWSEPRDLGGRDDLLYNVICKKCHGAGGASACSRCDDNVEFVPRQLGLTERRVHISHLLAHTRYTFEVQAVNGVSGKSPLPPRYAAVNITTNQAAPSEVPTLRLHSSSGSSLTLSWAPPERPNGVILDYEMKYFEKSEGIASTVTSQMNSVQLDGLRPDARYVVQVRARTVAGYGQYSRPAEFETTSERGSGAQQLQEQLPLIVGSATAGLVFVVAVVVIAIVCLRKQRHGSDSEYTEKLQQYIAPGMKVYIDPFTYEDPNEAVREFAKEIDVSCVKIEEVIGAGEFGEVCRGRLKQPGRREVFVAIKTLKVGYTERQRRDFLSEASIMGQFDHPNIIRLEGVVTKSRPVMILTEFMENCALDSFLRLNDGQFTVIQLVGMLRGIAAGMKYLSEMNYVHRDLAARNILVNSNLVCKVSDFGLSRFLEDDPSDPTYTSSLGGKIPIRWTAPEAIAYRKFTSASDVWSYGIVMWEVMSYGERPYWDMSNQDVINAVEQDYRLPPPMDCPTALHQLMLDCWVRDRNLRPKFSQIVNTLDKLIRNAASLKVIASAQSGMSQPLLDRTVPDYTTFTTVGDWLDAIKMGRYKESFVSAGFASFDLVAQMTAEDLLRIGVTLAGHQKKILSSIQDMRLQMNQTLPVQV
Method: (§1) The Kinome Screening was performed by Reaction Biology Europe GmbH (http://reactionbiology.com; Freiburg i. Br., Germany).

GSK3β = molecular target: T2, GSK3β (Homo sapiens, UniProt P49841)
T2 construct: purchased Reaction Biology Europe GmbH (formerly ProQinase)
T2 sequence (P49841 whole entry): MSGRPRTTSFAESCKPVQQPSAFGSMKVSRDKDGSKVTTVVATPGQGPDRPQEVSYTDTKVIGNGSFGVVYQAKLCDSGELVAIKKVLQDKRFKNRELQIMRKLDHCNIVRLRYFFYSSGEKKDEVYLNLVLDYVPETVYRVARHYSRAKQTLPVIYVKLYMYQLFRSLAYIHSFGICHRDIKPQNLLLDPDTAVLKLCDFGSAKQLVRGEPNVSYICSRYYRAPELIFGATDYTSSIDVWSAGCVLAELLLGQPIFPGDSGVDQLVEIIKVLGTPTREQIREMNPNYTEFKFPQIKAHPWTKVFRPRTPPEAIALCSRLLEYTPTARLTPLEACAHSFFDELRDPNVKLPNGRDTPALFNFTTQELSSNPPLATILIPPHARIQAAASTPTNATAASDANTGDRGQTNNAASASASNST
Method: as §1

DCAMKL2 = molecular target: T3, DCAMKL2 (Homo sapiens, UniProt Q8N568)
T3 construct: purchased Reaction Biology Europe GmbH (formerly ProQinase)
T3 sequence (Q8N568 1-766): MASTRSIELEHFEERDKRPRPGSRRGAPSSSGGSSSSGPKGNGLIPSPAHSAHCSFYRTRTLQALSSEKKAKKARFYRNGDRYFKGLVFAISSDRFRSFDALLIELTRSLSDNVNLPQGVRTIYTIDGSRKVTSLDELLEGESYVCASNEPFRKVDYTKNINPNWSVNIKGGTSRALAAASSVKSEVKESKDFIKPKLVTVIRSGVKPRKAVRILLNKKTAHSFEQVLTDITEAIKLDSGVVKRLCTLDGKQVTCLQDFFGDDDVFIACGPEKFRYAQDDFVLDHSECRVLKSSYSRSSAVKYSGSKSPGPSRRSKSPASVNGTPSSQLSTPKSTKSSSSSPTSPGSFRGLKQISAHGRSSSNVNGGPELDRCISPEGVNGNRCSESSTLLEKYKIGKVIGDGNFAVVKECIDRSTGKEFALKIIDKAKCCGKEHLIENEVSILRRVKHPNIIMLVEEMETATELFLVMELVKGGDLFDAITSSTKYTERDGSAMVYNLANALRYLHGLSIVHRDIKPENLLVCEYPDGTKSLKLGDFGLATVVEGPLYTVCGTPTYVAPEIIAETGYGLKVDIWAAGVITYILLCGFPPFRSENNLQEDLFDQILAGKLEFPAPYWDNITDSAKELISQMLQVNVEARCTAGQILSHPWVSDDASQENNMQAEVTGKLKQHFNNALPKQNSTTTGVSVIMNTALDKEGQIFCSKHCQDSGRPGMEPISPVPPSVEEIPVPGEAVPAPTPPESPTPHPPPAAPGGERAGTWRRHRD
Method: as §1

VRK2 = molecular target: T4, VRK2 (Homo sapiens, UniProt Q86Y07)
T4 construct: purchased Reaction Biology Europe GmbH (formerly ProQinase)
T4 sequence (Q86Y07 whole entry): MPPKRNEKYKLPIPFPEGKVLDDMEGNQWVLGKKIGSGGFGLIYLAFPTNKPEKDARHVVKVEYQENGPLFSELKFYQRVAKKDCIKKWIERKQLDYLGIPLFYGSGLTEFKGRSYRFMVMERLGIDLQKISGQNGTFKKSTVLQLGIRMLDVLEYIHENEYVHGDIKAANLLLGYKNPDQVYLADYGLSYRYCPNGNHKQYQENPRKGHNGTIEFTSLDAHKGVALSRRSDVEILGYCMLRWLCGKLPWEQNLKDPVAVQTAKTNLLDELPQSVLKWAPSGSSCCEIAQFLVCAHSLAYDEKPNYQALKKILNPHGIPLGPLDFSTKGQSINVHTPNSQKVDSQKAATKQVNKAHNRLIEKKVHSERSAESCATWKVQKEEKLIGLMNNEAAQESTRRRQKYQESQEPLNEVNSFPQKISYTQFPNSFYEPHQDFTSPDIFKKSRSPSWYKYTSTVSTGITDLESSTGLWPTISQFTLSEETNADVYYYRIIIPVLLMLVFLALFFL
Method: as §1

EPHA2 = molecular target: T5, EPHA2 (Homo sapiens, UniProt P29317)
T5 construct: purchased Reaction Biology Europe GmbH (formerly ProQinase)
T5 sequence (P29317 24-976): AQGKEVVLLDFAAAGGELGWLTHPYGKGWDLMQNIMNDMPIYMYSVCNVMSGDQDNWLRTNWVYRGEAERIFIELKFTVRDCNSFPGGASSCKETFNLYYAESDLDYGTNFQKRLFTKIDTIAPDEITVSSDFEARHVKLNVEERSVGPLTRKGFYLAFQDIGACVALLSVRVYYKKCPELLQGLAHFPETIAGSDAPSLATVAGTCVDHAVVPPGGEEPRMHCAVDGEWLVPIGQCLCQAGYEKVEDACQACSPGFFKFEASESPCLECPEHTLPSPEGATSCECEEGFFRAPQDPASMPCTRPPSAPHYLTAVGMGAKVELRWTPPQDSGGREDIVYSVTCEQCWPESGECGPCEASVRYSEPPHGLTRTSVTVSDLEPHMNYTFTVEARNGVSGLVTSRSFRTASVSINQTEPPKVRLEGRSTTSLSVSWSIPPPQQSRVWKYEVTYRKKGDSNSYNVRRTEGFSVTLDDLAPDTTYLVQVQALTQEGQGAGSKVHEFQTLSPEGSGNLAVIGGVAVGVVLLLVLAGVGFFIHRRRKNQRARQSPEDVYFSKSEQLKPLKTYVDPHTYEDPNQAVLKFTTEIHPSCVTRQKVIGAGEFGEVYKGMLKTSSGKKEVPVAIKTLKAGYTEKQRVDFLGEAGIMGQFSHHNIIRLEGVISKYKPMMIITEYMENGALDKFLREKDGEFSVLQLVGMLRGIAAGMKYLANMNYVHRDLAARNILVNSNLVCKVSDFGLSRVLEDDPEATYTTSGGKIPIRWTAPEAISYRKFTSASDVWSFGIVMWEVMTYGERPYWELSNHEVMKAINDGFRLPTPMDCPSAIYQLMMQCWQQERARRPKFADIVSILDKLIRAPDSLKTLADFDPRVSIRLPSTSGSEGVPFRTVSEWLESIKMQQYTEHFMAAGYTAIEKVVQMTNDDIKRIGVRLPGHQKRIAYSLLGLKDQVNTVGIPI
Method: as §1

ERBB2 = molecular target: T6, ERBB2 (Homo sapiens, UniProt P04626)
T6 construct: purchased Reaction Biology Europe GmbH (formerly ProQinase)
T6 sequence (P04626 23-1255): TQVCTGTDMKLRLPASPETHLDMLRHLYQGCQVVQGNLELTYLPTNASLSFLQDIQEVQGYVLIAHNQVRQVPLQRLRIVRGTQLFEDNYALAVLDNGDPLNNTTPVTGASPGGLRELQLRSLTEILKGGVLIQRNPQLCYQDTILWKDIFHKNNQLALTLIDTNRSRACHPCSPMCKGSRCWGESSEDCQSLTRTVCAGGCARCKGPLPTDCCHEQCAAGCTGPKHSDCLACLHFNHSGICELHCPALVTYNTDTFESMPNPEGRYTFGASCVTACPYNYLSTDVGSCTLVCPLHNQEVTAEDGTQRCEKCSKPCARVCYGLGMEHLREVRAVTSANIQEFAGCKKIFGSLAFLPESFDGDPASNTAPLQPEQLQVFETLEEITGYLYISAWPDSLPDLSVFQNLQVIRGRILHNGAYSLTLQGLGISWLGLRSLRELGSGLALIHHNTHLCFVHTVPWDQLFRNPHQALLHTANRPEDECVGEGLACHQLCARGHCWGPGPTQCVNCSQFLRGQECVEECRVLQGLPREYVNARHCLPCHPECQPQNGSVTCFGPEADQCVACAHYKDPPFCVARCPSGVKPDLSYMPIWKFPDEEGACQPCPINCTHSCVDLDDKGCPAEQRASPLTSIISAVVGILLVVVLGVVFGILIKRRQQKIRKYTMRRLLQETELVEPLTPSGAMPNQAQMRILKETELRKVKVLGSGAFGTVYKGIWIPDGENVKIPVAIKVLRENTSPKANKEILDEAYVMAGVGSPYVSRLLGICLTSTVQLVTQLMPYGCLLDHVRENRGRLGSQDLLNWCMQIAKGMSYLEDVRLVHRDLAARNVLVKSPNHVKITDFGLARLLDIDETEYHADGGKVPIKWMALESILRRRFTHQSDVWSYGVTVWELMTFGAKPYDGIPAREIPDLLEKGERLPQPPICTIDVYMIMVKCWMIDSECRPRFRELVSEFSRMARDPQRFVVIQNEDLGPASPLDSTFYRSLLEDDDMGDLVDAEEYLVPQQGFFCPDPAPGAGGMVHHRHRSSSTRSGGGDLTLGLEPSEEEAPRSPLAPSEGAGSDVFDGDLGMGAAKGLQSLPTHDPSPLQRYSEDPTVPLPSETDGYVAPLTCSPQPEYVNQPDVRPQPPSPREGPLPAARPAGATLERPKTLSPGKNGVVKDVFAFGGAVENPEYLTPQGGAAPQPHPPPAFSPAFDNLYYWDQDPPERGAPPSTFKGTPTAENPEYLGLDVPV
Method: as §1

GRK2 = molecular target: T7, GRK2 (Homo sapiens, UniProt P25098)
T7 construct: purchased Reaction Biology Europe GmbH (formerly ProQinase)
T7 sequence (P25098 1-689): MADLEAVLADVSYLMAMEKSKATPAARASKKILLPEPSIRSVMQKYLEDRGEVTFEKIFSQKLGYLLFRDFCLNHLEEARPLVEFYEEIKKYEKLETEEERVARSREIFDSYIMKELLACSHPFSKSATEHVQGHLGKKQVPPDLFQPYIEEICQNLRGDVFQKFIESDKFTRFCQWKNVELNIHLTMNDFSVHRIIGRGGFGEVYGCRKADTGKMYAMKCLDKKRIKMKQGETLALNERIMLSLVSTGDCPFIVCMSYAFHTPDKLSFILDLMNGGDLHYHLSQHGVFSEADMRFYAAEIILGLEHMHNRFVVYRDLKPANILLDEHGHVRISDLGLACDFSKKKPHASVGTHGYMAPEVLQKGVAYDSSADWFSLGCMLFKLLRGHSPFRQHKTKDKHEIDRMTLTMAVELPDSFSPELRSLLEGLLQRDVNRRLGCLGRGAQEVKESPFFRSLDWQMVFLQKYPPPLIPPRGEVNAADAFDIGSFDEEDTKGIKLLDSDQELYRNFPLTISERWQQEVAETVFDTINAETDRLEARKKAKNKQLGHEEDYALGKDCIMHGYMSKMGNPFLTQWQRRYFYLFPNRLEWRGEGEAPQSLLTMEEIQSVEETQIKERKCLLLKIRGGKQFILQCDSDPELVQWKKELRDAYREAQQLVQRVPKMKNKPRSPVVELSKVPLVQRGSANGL
Method: as §1

CAMKK2 = molecular target: T8, CAMKK2 (Homo sapiens, UniProt Q96RR4)
T8 construct: purchased Reaction Biology Europe GmbH (formerly ProQinase)
T8 sequence (Q96RR4 whole entry): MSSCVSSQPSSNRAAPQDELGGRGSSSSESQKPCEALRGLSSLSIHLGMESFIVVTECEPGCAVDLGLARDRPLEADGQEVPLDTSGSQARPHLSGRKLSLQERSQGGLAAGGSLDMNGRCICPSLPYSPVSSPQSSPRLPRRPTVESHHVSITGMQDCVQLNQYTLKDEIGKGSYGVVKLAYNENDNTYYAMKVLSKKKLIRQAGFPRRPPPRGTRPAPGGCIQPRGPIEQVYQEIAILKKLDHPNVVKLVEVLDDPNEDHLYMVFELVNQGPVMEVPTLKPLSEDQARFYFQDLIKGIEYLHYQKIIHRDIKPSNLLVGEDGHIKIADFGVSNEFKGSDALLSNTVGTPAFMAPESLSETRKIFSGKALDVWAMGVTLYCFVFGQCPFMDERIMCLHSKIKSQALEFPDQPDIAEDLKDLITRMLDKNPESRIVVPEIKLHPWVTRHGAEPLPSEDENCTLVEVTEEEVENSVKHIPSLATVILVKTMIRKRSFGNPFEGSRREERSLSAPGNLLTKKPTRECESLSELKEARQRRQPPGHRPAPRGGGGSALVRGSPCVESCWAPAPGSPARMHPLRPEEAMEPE
Method: as §1

SNK = molecular target: T9, SNK (Homo sapiens, UniProt Q9NYY3)
T9 construct: purchased Reaction Biology Europe GmbH (formerly ProQinase)
T9 sequence (Q9NYY3 whole entry): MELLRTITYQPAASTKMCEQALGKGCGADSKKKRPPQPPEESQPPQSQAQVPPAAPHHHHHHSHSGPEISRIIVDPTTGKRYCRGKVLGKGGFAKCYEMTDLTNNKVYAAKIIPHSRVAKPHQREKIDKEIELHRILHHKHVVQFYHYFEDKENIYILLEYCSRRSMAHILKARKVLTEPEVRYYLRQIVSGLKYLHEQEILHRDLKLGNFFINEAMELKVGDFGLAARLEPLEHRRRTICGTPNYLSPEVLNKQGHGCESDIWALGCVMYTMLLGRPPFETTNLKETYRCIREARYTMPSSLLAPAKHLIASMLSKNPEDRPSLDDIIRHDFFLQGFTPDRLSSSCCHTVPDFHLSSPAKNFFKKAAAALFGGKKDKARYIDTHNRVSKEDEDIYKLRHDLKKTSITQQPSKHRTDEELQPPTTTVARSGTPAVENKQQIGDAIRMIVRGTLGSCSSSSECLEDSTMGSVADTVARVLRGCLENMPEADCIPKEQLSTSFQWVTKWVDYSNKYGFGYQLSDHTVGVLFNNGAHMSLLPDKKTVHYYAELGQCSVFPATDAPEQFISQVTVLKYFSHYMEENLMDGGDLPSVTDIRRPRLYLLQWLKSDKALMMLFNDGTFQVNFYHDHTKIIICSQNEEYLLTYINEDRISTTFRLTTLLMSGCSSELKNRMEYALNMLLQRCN
Method: as §1

SMILES	residual kinase activity (EPHB3; 0.3 µM)	residual kinase activity (GSK3β; 0.3 µM)	residual kinase activity (DCAMKL2; 0.3 µM)	residual kinase activity (VRK2; 0.3 µM)	residual kinase activity (EPHA2; 0.3 µM)	residual kinase activity (ERBB2; 0.3 µM)	residual kinase activity (GRK2; 0.3 µM)	residual kinase activity (CAMKK2; 0.3 µM)	residual kinase activity (SNK; 0.3 µM)	further results
COc1ccnc2[nH]cc(-c3cc(N)nc(N)c3)c12 [meriolin 16]	99 % of control	66 % of control	85 % of control	92 % of control	101 % of control	102 % of control	106 % of control	55 % of control	98 % of control	residual kinase activity (EPHB3; 0.03 µM): 101 % of control; residual kinase activity (GSK3β; 0.03 µM): 80 % of control; residual kinase activity (DCAMKL2; 0.03 µM): 92 % of control; residual kinase activity (VRK2; 0.03 µM): 103 % of control; residual kinase activity (EPHA2; 0.03 µM): 109 % of control; residual kinase activity (ERBB2; 0.03 µM): 102 % of control; residual kinase activity (GRK2; 0.03 µM): 96 % of control; residual kinase activity (CAMKK2; 0.03 µM): 92 % of control; residual kinase activity (SNK; 0.03 µM): 96 % of control
c1ccc(CNc2cc(-c3c[nH]c4ncccc34)ccn2)cc1 [meriolin 36]	91 % of control	18 % of control	91 % of control	93 % of control	101 % of control	90 % of control	99 % of control	9 % of control	94 % of control	residual kinase activity (EPHB3; 3 µM): 67 % of control; residual kinase activity (GSK3β; 3 µM): 2 % of control; residual kinase activity (DCAMKL2; 3 µM): 81 % of control; residual kinase activity (VRK2; 3 µM): 45 % of control; residual kinase activity (EPHA2; 3 µM): 72 % of control; residual kinase activity (ERBB2; 3 µM): 44 % of control; residual kinase activity (GRK2; 3 µM): 51 % of control; residual kinase activity (CAMKK2; 3 µM): 1 % of control; residual kinase activity (SNK; 3 µM): 43 % of control

— publication PMC11167047 (Cell Death Discovery, 2024)
